According to ChEMBL document CHEMBL1126778, “Adenosine A1 antagonists. 3. Structure-activity relationships on amelioration against scopolamine- or N6-((R)-phenylisopropyl)adenosine-induced cognitive disturbance” (J Med Chem, 1993):

Legend:
Rattus norvegicus [1] = experiment: Retention time in Scopolamine induced avoidance test (performed in rat) for antagonistic activity after peroral administration of 1.25 mg/kg; type: functional, organism-based; parameters: dose 1.25 mg/kg
Rattus norvegicus [2] = experiment: Retention time in Scopolamine induced avoidance test (performed in rat) for antagonistic activity after peroral administration of 20 mg/kg; type: functional, organism-based; parameters: dose 20 mg/kg
Mus musculus [3] = experiment: Retention time in (R)-PIA) induced avoidance test (performed in mice) for antagonistic activity after peroral administration of 5 mg/kg; type: functional, organism-based; parameters: dose 5 mg/kg
Rattus norvegicus [4] = experiment: Retention time in Scopolamine induced avoidance test (performed in rat) for antagonistic activity after peroral administration of 0.08 mg/kg; type: functional, organism-based; parameters: dose 0.08 mg/kg
Mus musculus [5] = experiment: Retention time in (R)-PIA) induced avoidance test (performed in mice) for antagonistic activity after peroral administration of 0.31 mg/kg; type: functional, organism-based; parameters: dose 0.31 mg/kg
Rattus norvegicus [6] = experiment: Retention time in Scopolamine induced avoidance test (performed in rat) for antagonistic activity after p.o. administration of 0.31 mg/kg; type: functional, organism-based; parameters: dose 0.31 mg/kg
Mus musculus [7] = experiment: Retention time in (R)-PIA) induced avoidance test (performed in mice) for antagonistic activity after peroral administration of 1.25 mg/kg; type: functional, organism-based; parameters: dose 1.25 mg/kg
Mus musculus [8] = experiment: Retention time in (R)-PIA) induced avoidance test (performed in mice) for antagonistic activity after peroral administration of 0.08 mg/kg; type: functional, organism-based; parameters: dose 0.08 mg/kg
Mus musculus [9] = experiment: Acquisition time in (R)-PIA) induced avoidance test (performed in mice) for antagonistic activity after p.o. administration of 0.31 mg/kg; type: functional; settings: route oral
Rattus norvegicus [10] = experiment: Acquisition time in Scopolamine induced avoidance test (performed in rat) for antagonistic activity after p.o. administration of 0.08 mg/kg; type: functional; settings: route oral
Rattus norvegicus [11] = experiment: Acquisition time in Scopolamine induced avoidance test (performed in rat) for antagonistic activity after p.o. administration of 0.31 mg/kg; type: functional; settings: route oral
Rattus norvegicus [12] = experiment: Acquisition time in Scopolamine induced avoidance test (performed in rat) for antagonistic activity after peroral administration of 20 mg/kg; type: functional; settings: route oral
Mus musculus [13] = experiment: Acquisition time in (R)-PIA) induced avoidance test (performed in mice) for antagonistic activity after peroral administration of 5 mg/kg; type: functional; settings: route oral
Mus musculus [14] = experiment: Retention time in (R)-PIA) induced avoidance test (performed in mice) for antagonistic activity after peroral administration of 0.02 mg/kg
Rattus norvegicus [15] = experiment: Acquisition time in Scopolamine induced avoidance test (performed in rat) for antagonistic activity after p.o. administration of 5 mg/kg; type: functional; settings: route oral
Mus musculus [16] = experiment: Acquisition time in (R)-PIA) induced avoidance test (performed in mice) for antagonistic activity after peroral administration of 20 mg/kg; type: functional; settings: route oral
Mus musculus [17] = experiment: Acquisition time in (R)-PIA) induced avoidance test (performed in mice) for antagonistic activity after p.o. administration of 1.25 mg/kg; type: functional; settings: route oral
Mus musculus [18] = experiment: Retention time in (R)-PIA) induced avoidance test (performed in mice) for antagonistic activity after peroral administration of 20 mg/kg; type: functional, organism-based; parameters: dose 20 mg/kg
Mus musculus [19] = experiment: Retention time in (R)-PIA) induced avoidance test (performed in mice) for antagonistic activity after p.o. administration of 1.25 mg/kg; type: functional, organism-based; parameters: dose 1.25 mg/kg
Mus musculus [20] = experiment: Acquisition time in (R)-PIA) induced avoidance test (performed in mice) for antagonistic activity after peroral administration of 0.08 mg/kg; type: functional; settings: route oral
[21] = target: T1, Adenosine receptor A1 (Bos taurus) (UniProt P28190); experiment: Binding affinity for Adenosine A1 receptor of bovine brain at 10e-5 M with [125I]-N6-aminobenzyladenosine
T1 sequence (whole entry): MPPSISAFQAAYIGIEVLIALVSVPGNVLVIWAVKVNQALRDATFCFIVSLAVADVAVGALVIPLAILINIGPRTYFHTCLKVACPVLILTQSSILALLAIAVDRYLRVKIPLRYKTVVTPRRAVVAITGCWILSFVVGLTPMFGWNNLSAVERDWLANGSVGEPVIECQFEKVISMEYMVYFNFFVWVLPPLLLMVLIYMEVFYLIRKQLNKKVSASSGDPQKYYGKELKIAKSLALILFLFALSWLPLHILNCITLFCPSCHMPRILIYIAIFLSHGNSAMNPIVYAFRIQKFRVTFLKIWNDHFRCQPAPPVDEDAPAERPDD

Mus musculus [22] = experiment: Acquisition time in (R)-PIA) induced avoidance test (performed in mice) for antagonistic activity after peroral administration of 0.02 mg/kg; settings: route oral
Adenosine A2 receptor = Adenosine A2 receptor (Homo sapiens, UniProt P29275+P29274); experiment: Binding affinity towards Adenosine A2 receptor of human platelets with [125I]-N6-aminobenzyladenosine
Rattus norvegicus [23] = experiment: Acquisition time in Scopolamine induced avoidance test (performed in rat) for antagonistic activity after peroral administration of 1.25 mg/kg; type: functional; settings: route oral
Rattus norvegicus [24] = experiment: Retention time in Scopolamine induced avoidance test (performed in rat) for antagonistic activity after p.o. administration of 0.08 mg/kg; type: functional, organism-based; parameters: dose 0.08 mg/kg
Rattus norvegicus [25] = experiment: Retention time in Scopolamine induced avoidance test (performed in […]) for antagonistic activity after peroral administration of 5 mg/kg; type: functional, organism-based; parameters: dose 5 mg/kg
Mus musculus [26] = experiment: Tested for locomotor activity after oral administration of 10 mg/kg for 120 min; type: functional
Rattus norvegicus [27] = experiment: Acquisition time in Scopolamine induced avoidance test (performed in rat) for antagonistic activity after peroral administration of 80 mg/kg; type: functional; settings: route oral
Mus musculus [28] = experiment: Tested for locomotor activity after oral administration of […] for 120 min; type: functional
Mus musculus [29] = experiment: Tested for locomotor activity after oral administration of 40 mg/kg for 120 min; type: functional
Rattus norvegicus [30] = experiment: Retention time in Scopolamine induced avoidance test (performed in rat) for antagonistic activity after peroral administration of 5 mg/kg; type: functional, organism-based; parameters: dose 5 mg/kg
Rattus norvegicus [31] = experiment: Retention time in Scopolamine induced avoidance test (performed in rat) for antagonistic activity after peroral administration of 80 mg/kg; type: functional, organism-based; parameters: dose 80 mg/kg
Mus musculus [32] = experiment: etention time in (R)-PIA) induced avoidance test (performed in mice) for antagonistic activity after peroral administration of 0.31 mg/kg; type: functional, organism-based; parameters: dose 0.31 mg/kg

SMILES | Retention time (Rattus norvegicus [1]) | Retention time (Rattus norvegicus [2]) | Retention time (Mus musculus [3]) | Retention time (Mus musculus [5]) | Retention time (Rattus norvegicus [6]) | Retention time (Mus musculus [8]) | Acquisition time (Mus musculus [9]) | Acquisition time (Rattus norvegicus [10]) | Acquisition time (Rattus norvegicus [11]) | Acquisition time (Rattus norvegicus [12]) | Acquisition time (Mus musculus [13]) | Retention time (Mus musculus [14]) | Acquisition time (Rattus norvegicus [15]) | Acquisition time (Mus musculus [17]) | Retention time (Mus musculus [19]) | Acquisition time (Mus musculus [20]) | Acquisition time (Mus musculus [22]) | Acquisition time (Rattus norvegicus [23]) | Retention time (Rattus norvegicus [24]) | Retention time (Rattus norvegicus [25]) | also measured
Cn1c(=O)c2[nH]cnc2n(C)c1=O | 10.9 s | 14.6 s | 104 s | 113 s | 31.2 s | 85.4 s |  |  |  |  |  |  |  |  |  |  |  |  |  |  | Retention time (Rattus norvegicus [4]): 45.8 s; Retention time (Mus musculus [7]): 166 s
CCCn1c(=O)c2nc(C3CCCC3)[nH]c2n(CCc2ccc(NC(C)=O)cc2)c1=O | 170 s | 116 s | 47.5 s | 38.7 s | 130 s | 75.4 s | 18.9 s | 15.4 s | 15.5 s | 13.8 s | 27.8 s | 137 s | 15.9 s | 18.8 s | 20 s | 23.9 s | 12.2 s | 12.6 s | 175 s | 187 s | Acquisition time (Mus musculus [16]): 20.5 s; Retention time (Mus musculus [18]): 32.2 s; inhibition [21]: 66%; Ki (Adenosine A2 receptor): > 100 µM
Cn1c(=O)c2c(ncn2C)n(C)c1=O [CAFFEINE] | 11.9 s |  |  |  | 14.9 s |  |  |  | 18.3 s | 33.8 s |  |  | 11.5 s |  |  |  |  | 14.6 s |  |  | Locomotor activity (Mus musculus [26]): 9386 Counts; Acquisition time (Rattus norvegicus [27]): 29.6 s; Locomotor activity (Mus musculus [28]): 6413 Counts; Locomotor activity (Mus musculus [29]): 9693 Counts; Retention time (Rattus norvegicus [30]): 12.5 s; Retention time (Rattus norvegicus [31]): 7.6 s
CCCN1C(=O)N2C[C@H](CC)N=C2c2[nH]c(C34CC5CC(CC3C5)C4)nc21 | 20.3 s | 19.6 s | 431 s |  | 81.3 s | 464 s | 22.9 s | 8 s | 10.9 s | 7 s | 12.9 s | 109 s | 14 s | 14.3 s | 351 s | 13.4 s | 14.3 s | 15.1 s | 40.7 s | 13.3 s | Retention time (Mus musculus [32]): 489 s
